Here are results for twelve compounds from patent US20060217456A1, “Non-toxic coating composition, methods of use thereof and articles protected from attachment of biofouling organisms” (priority 2003, published 2006).

In assay [1] the test system is cyprid stage larvae of the barnacle, Balanus amphitrite Darwin. Briefly: Barnacle settlement assay (cyprid larvae in seawater dishes). The assay is classed as in vivo. To be noted: single compound, 28° C., 9 hours; for EC50: Amphibalanus amphitrite, read-out: EC50 (concentration inhibiting settlement of 50% of cyprid larvae). The source says:
Adults of the barnacle, Balanus amphitrite Darwin, were collected from the Sacred Heart Marine Research Center at St. Mary's College in Tuticorin, India. The barnacles were crushed and the nauplius stage larvae were collected for culture to the cyprid stage following the method of Rittschof et al., J. Exp. Mar. Biol. Ecol., 82:131-146 (1984). The cyprid is the stage at which the barnacle larva is competent to attach to surfaces. Upon attachment to a surface, the larva then undergoes metamorphosis into a barnacle.
Barnacle settlement assays were undertaken using the method described previously by Rittschof et al., J. Chem. Ecol., 11: 551-563 (1985). Briefly, Falcon 50×9 mm plastic petri dishes were filled with 5 ml of filtered seawater at salinity of 33-35 parts per thousand (ppt) and into which 3-day old cyprid stage larvae were added. Menthol and/or isopulegol and/or compounds listed under ii) a) to f), above, were introduced at various concentrations into the dishes containing seawater. Controls were represented by those dishes in which no test compound were added. After incubation at 28° C. for 9 hours, the dishes were examined under a dissecting microscope to determine if there was any mortality. The larvae were then killed with 10% formalin and the number of attached and unattached larvae were counted. Settlement data were expressed as the percentage of the larvae attached to the bottom of the dish.
The settlement assay was used to determine the effective concentration of a number of different compounds listed under ii) a) to f), above. The effective concentration (EC50) is that concentration which inhibited the settlement of fifty percent (50%) of the cyprid stage of the barnacle larvae present in a test sample. The racemic […] compounds are denoted with the prefix rac-.

For assay [2], the system named is barnacle, Balanus amphitrite communis. Briefly: Marine paint panel immersion test, barnacles attached to painted iron panels. The settings on record: cuprous oxide marine paint on iron panels, submerged 78 weeks, Bitac Cove; control = 100. The procedure: A floating platform was constructed using layers of bamboo and styrofoam floats. The platform was designed with holders to accommodate test panels measuring 4 inches×12 inches×0.25 inches (1 inch=2.54 cm). A first experimental paint was prepared, containing a biocidally effective amount of cuprous oxide and no other biocide which was used as the control. This composition consisted of 40 parts by weight of cuprous oxide, 10 parts by weight of iron oxide red, 5 parts by weight of xylene, 10 parts by weight of butyl alcohol, 5 parts by weight polyamide resin, 6 parts by weight of plasticizer. To this composition was added a combination of 0.5% by weight of rac-isopulegol, 0.25% by weight of (−)-menthol and 0.25% by weight of 1-menthol propyleneglycol carbonate (Composition A). A second paint composition was prepared from the same marine paint vehicle containing cuprous oxide, to which was added 2% by weight of (−)-menthol (Composition B). A third formulation was made from the same cuprous oxide-containing marine paint vehicle, to which was added 2% by weight of rac-isopulegol (Composition C). A fourth formulation was made from the same cuprous oxide-containing marine paint vehicle, to which was added 2% by weight of 1-menthol propyleneglycol carbonate (Composition D). Solid iron panels having the above-mentioned dimensions were painted with the paint formulations thus prepared, placed in the holders in the floating platform and submerged continuously near the center of Bitac Cove in San Dionisio Bay (Philippines) for a period of 78 weeks. The panels were examined for a few minutes every three months and immediately resubmerged after photography. After 78 weeks, the panels were removed and inspected. The numbers of barnacles attached to the panels were counted. The major fouling organisms included the barnacle, Balanus amphitrite communis, and the rock oyster, Crossostrea cuculata.

For assay [3], the system named is cyprid stage larvae of the barnacle, Balanus amphitrite Darwin. The settings on record: single compound; 28° C., 9 hours; see WO 01/95718; cited from earlier work.

In brackets after ≈: the same amount, converted by molar mass. Read-outs that look alike come from different tables or passages of the source.

Take `CC(O)C(=O)O[C@@H]1C[C@H](C)CC[C@H]1C(C)C` (mixture of isomers) [I-menthyl lactate, 1-menthyllactate]: in assay [1], the EC50 amounted to 0.002 mg/L. In the case of `C=C(C)[C@@H]1CC[C@@H](C)C[C@H]1O` (racemic) [rac-isopulegol], the “EC50 (concentration inhibiting settlement of 50% of cyprid larvae)” value in assay [1] is 0.029 mg/L. In addition, in assay [2], the “% Settlement” value is on record as 16.1%. With `CC1CCC(C(C)C)C(O)C1` (racemic) [rac-menthol], the “EC50 (concentration inhibiting settlement of 50% of cyprid larvae)” value in assay [3] is listed as 0.1 (see WO 01/95718) mg/ml. Take `CC1CCC(C(C)C)C2(C1)OCC(CO)O2` (racemic) [rac-menthone glycerin acetal]: the “EC50 (concentration inhibiting settlement of 50% of cyprid larvae)” value in assay [1] stood at 0.049 mg/L.

With `CC1CCC(C(C)C)C(O)C1` (stereo not drawn) [1R, 2S, 5R-(−)-menthol (=l-menthol), 1R, 2S, 5R-(−)-menthol], in assay [3], the “EC50 (concentration inhibiting settlement of 50% of cyprid larvae)” value is given as 4 * 10^−3 (see WO 01/95718) mg/ml. Also, the “% Settlement” value in assay [2] stood at 12.2%. As to `CC1CC[C@H](C(C)C)[C@@H](O)C1` (stereo partly drawn) [1S, 2R, 5S-(+)-menthol, reference compound], in assay [3], the “EC50 (concentration inhibiting settlement of 50% of cyprid larvae)” value is listed as 0.1 (see WO 01/95718) mg/ml. Consider `C=C(C)[C@H]1CC=C(C)CC1` [d-limonene, reference compound], for which the “EC50 (concentration inhibiting settlement of 50% of cyprid larvae)” value in assay [1] was determined as 0.029 mg/L. For the compound `CC(C)[C@@H]1CC[C@@H](C)C[C@@]12OCC(CO)O2` (stereo partly drawn) [menthone glycerin acetal], the EC50 in assay [1] amounted to 0.00052 mg/L (≈ 0.00228 µM). On the same count and under the same terms, the value for `COC1CC(C)CCC1C(C)C` (stereo not drawn) [menthylmethylether, reference compound] was 0.11 mg/L (≈ 0.646 µM). With (−)-isopulegol, the “EC50 (concentration inhibiting settlement of 50% of cyprid larvae)” value in assay [3] was 8.8 * 10^−5 (see WO 01/95718) mg/ml. (−)-menthone [reference compound]: in assay [3], the “EC50 (concentration inhibiting settlement of 50% of cyprid larvae)” value is listed as 0.001 (see WO 01/95718) mg/ml. Regarding l-menthyl propyleneglycol carbonate, the “EC50 (concentration inhibiting settlement of 50% of cyprid larvae)” value in assay [1] came out at 0.0022 mg/L. Also, the “% Settlement” value in assay [2] is 23.4%.
